# Test results as given in US11572402B2, “Method for promoting diversification of antibody variable region” (Chiome Bioscience Inc., priority 2017, dated 2023).
# Experiments:
# hVEGF-A-#33 cell line = assay: Affinity Maturation and FCM, cells in Affinity Maturation Gate; assay type: cell-based, chicken; details: A66 10 μM, PI3Kα Inhibitor 2 500 nM, Day 7, versus conditions without drug
# Method: (§1) Frozen stocks of the hVEGF-A #33 cell line and the hVEGF-A #44 cell line (3.0×10^6 cells) were each awaken with a CS(−) medium, using a 25 cm^2 Flask (Corning, 430639), and were then cultured in a CO2 incubator (SANYO CO2 Incubator MCO-20AIC, 39.5° C., 5% CO2). On the following day, the cells were seeded on a 6-well dish (Nunc, 140675) to a cell density of 1.0×10^4 cells/mL (wherein the cell concentration and the survival rate were measured using CASY cell counter (Nepa Gene)). The cells were cultured in a CS(+) medium, in the presence or absence of a PI3Kα inhibitor (A66: 10 μM, PI3Kα Inhibitor 2: 500 nM). Moreover, after the cells had been cultured for 2 days, individual samples were subcultured under the same conditions to result in a cell density of 1.0×10^4 cells/mL. […] A plot, in which the vertical axis indicated AF647 (AF647-labeled hVEGF-A) and the longitudinal axis indicated PE (Goat Anti-Human IgG-PE), was developed, and the percentage of PE+(hIgG+)/[…] cells was then calculated. […] The percentage of clones with improved antigen-binding ability was calculated by counting the number of cells existing in this Affinity Maturation Gate and then dividing the obtained value by the total number of the analyzed cells. […]
# hVEGF-A-#44 cell line = assay: as above; assay type: cell-based, chicken; details: A66 10 μM, PI3Kα Inhibitor 2 500 nM, Day 7, versus conditions without drug
# Method: as §1
smiles,measurement,setting,value
Cc1nc(NC(=O)N2CCC[C@H]2C(N)=O)sc1-c1csc(C(C)(C)C)n1 [A66],"percentage of the cells with improved antigen-binding ability (Affinity Maturation Gate, 5 or more times increased in MFI)",hVEGF-A-#33 cell line,increased
same,"percentage of the cells with improved antigen-binding ability (Affinity Maturation Gate, 5 or more times increased in MFI)",hVEGF-A-#44 cell line,increased
